Measured values from ChEMBL document CHEMBL4028801, “A multifactorial approach to hepatobiliary transporter assessment enables improved therapeutic compound development” (Toxicol Sci, 2013).

Tests used:
[1] = Ratio of drug concentration at steady state in human at 5 to 10 mg, po QD after 24 hrs to IC50 for human BSEP overexpressed in Sf9 insect cells; format: ADME, organism-based; settings: in vivo
[2] = AUC in human at 5 to 10 mg, po QD after 24 hrs; format: ADME, organism-based; settings: in vivo
[3] = Drug concentration at steady state in human at 5 to 10 mg, po QD after 24 hrs; format: ADME, organism-based; settings: in vivo, read-out: Css
[4] = molecular target: Bile salt export pump (Homo sapiens, UniProt O95342); test: Inhibition of human BSEP overexpressed in Sf9 cell membrane vesicles assessed as uptake of [3H]-taurocholate in presence of ATP measured after 15 to 20 mins by membrane vesicle transport assay; format: ADME, cell-based
[5] = molecular target: ATP-binding cassette sub-family C member 2 (Homo sapiens, UniProt Q92887); test: Inhibition of human MRP2 overexpressed in Sf9 cell membrane vesicles assessed as uptake of [3H]-estradiol-17beta-D-glucuronide in presence of ATP and GSH measured after 20 mins by membrane vesicle transport assay
[6] = molecular target: ATP-binding cassette sub-family C member 3 (Homo sapiens, UniProt O15438); test: Inhibition of human MRP3 overexpressed in Sf9 insect cell membrane vesicles assessed as uptake of [3H]-estradiol-17beta-D-glucuronide in presence of ATP and GSH measured after 10 mins by membrane vesicle transport assay; format: ADME, cell-based
[7] = molecular target: T1, ATP-binding cassette sub-family C member 4 (Homo sapiens, UniProt O15439); test: Inhibition of human MRP4 overexpressed in Sf9 cell membrane vesicles assessed as uptake of [3H]-estradiol-17beta-D-glucuronide in presence of ATP and GSH measured after 20 mins by membrane vesicle transport assay; format: ADME, cell-based
T1 sequence (O15439 whole entry): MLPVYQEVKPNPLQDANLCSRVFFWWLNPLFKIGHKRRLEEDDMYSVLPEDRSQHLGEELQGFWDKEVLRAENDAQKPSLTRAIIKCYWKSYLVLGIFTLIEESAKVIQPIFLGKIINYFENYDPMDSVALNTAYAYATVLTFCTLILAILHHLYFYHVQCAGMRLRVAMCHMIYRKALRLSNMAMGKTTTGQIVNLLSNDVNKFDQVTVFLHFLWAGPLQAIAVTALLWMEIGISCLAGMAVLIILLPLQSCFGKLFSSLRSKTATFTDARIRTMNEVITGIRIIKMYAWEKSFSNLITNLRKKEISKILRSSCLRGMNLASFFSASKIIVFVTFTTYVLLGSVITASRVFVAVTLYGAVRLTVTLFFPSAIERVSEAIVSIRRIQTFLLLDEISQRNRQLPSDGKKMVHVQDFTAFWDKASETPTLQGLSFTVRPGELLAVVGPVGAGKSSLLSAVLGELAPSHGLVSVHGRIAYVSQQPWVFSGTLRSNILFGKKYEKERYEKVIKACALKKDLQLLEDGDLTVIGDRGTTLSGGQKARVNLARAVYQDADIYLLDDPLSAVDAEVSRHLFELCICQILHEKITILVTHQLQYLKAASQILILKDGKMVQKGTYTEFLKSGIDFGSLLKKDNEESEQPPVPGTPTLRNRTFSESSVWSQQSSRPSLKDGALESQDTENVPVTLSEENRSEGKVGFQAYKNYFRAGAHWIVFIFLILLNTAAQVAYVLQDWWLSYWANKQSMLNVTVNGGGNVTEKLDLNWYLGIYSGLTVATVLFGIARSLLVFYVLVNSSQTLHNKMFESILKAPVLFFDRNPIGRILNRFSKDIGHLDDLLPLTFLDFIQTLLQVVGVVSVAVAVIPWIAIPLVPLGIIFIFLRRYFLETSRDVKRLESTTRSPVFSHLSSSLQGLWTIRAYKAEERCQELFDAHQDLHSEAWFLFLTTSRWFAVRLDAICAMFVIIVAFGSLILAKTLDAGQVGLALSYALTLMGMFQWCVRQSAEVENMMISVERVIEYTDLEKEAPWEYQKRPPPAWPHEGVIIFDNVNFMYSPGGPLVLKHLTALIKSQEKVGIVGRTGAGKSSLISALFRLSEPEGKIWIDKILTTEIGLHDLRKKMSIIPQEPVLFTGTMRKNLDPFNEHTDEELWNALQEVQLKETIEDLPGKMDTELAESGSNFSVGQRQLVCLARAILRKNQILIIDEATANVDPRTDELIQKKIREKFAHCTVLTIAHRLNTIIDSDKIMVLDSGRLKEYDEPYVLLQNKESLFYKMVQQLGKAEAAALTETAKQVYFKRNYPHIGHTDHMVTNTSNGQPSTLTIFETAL

[8] = Ratio of drug concentration at steady state in human administered intraocularly as 1 drop QD of 0.03% solution after 24 hrs to IC50 for human BSEP overexpressed in Sf9 insect cells; format: ADME; settings: topical_or_ocular
[9] = AUC in human at 1 to 40 mg, po QD after 24 hrs; format: ADME, organism-based; settings: in vivo
[10] = Drug concentration at steady state in human at 1 to 40 mg, po QD after 24 hrs; format: ADME, organism-based; settings: in vivo, read-out: Css
[11] = AUC in human at 20 to 80 mg, po QD after 24 hrs; format: ADME, organism-based; settings: in vivo
[12] = Drug concentration at steady state in human at 20 to 80 mg, po QD after 24 hrs; format: ADME, organism-based; settings: in vivo, read-out: Css
[13] = Ratio of drug concentration at steady state in human at 20 to 80 mg, po QD after 24 hrs to IC50 for human BSEP overexpressed in Sf9 insect cells; format: ADME, organism-based; settings: in vivo
[14] = Ratio of drug concentration at steady state in human at 20 to 80 mg, po QD after 24 hrs to IC50 for human MRP3 overexpressed in Sf9 insect cells; format: ADME, organism-based; settings: in vivo
[15] = AUC in human at 15 to 60 mg, po QD after 24 hrs; format: ADME, organism-based; settings: in vivo
[16] = Drug concentration at steady state in human at 15 to 60 mg, po QD after 24 hrs; format: ADME, organism-based; settings: in vivo, read-out: Css
[17] = Ratio of drug concentration at steady state in human at 15 to 60 mg, po QD after 24 hrs to IC50 for human BSEP overexpressed in Sf9 insect cells; format: ADME, organism-based; settings: in vivo
[18] = Drug concentration at steady state in human at 50 mg, po QD after 24 hrs; format: ADME, organism-based; settings: in vivo, read-out: Css
[19] = AUC in human at 50 mg, po QD after 24 hrs; format: ADME, organism-based; set-up: dose 50 mg, time < 24 hr, route oral; settings: in vivo
[20] = Ratio of drug concentration at steady state in human at 50 mg, po QD after 24 hrs to IC50 for human BSEP overexpressed in Sf9 insect cells; format: ADME, organism-based; settings: in vivo
[21] = AUC in human at 0.2 mg, po QID after 6 hrs; format: ADME, organism-based; set-up: time < 6 hr, dose 0.2 mg, route oral; settings: in vivo
[22] = Ratio of drug concentration at steady state in human at 0.2 mg, po QID after 6 hrs to IC50 for human BSEP overexpressed in Sf9 insect cells; format: ADME, organism-based; settings: in vivo
[23] = Ratio of drug concentration at steady state in human at 0.2 mg, po QID after 6 hrs to IC50 for human MRP4 overexpressed in Sf9 insect cells; format: ADME, organism-based; settings: in vivo
[24] = AUC in human at 10 mg, po after 24 hrs; format: ADME, organism-based; set-up: time < 24 hr, dose 10 mg, route oral; settings: in vivo
[25] = test system: Homo sapiens; test: Cardiotoxicity in human at 20 to 30 mg/day, po; format: toxicity
[26] = Drug concentration at steady state in human at 9 mg, po QD after 24 hrs; format: ADME, organism-based; settings: in vivo, read-out: Css
[27] = Ratio of drug concentration at steady state in human at 9 mg, po QD after 24 hrs to IC50 for human MRP3 overexpressed in Sf9 insect cells; format: ADME, organism-based; settings: in vivo
[28] = Ratio of drug concentration at steady state in human at 9 mg, po QD after 24 hrs to IC50 for human MRP4 overexpressed in Sf9 insect cells; format: ADME, organism-based; settings: in vivo
[29] = AUC in human at 9 mg, po QD after 24 hrs; format: ADME, organism-based; set-up: time < 24 hr, dose 9 mg, route oral; settings: in vivo
[30] = Ratio of drug concentration at steady state in human at 9 mg, po QD after 24 hrs to IC50 for human BSEP overexpressed in Sf9 insect cells; format: ADME, organism-based; settings: in vivo
[31] = AUC in human at 1 ug/ml, po QD after 24 hrs; format: ADME, organism-based; set-up: dose 1 ug/ml, time < 24 hr, route oral; settings: in vivo
[32] = Ratio of drug concentration at steady state in human at 1 ug/ml, po QD after 24 hrs to IC50 for human BSEP overexpressed in Sf9 insect cells; format: ADME, organism-based
[33] = test system: Homo sapiens; test: Drug concentration at steady state in human at 1 ug/ml, po QD after 24 hrs; format: ADME, organism-based; settings: in vivo

Sequence of Bile salt export pump (O95342 whole entry): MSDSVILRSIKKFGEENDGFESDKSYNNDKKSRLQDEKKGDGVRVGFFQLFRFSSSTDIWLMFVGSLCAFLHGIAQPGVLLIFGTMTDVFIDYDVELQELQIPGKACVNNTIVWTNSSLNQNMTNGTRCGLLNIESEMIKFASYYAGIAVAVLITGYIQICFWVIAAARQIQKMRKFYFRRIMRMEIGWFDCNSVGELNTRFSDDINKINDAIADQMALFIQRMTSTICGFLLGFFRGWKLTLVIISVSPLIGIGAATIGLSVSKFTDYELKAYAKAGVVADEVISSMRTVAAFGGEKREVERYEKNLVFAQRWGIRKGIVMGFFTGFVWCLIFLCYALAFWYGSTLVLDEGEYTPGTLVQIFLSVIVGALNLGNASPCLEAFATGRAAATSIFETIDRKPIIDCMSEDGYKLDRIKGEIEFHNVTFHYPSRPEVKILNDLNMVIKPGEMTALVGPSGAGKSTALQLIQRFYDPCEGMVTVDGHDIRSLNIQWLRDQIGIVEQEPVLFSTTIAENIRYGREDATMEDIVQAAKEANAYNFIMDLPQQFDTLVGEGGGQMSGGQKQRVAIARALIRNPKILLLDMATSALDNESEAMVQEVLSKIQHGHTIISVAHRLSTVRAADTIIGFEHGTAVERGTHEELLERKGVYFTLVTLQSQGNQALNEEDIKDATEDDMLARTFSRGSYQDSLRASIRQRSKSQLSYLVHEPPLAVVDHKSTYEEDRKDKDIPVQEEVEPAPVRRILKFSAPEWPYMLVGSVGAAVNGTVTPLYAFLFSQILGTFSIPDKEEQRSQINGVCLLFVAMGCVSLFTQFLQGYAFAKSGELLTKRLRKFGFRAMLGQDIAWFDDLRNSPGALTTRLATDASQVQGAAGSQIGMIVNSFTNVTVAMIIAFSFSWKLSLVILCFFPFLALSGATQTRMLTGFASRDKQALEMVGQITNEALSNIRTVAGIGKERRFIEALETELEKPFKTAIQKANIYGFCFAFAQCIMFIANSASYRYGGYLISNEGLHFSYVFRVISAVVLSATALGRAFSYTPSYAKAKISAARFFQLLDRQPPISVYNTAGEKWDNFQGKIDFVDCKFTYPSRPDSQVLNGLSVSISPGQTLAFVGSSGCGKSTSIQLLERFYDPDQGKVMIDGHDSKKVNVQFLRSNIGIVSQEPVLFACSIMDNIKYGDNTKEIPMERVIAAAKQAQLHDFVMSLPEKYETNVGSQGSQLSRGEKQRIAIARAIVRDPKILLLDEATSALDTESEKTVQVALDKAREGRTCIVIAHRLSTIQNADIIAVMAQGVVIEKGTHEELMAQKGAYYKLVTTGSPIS
Sequence of ATP-binding cassette sub-family C member 3 (O15438 whole entry): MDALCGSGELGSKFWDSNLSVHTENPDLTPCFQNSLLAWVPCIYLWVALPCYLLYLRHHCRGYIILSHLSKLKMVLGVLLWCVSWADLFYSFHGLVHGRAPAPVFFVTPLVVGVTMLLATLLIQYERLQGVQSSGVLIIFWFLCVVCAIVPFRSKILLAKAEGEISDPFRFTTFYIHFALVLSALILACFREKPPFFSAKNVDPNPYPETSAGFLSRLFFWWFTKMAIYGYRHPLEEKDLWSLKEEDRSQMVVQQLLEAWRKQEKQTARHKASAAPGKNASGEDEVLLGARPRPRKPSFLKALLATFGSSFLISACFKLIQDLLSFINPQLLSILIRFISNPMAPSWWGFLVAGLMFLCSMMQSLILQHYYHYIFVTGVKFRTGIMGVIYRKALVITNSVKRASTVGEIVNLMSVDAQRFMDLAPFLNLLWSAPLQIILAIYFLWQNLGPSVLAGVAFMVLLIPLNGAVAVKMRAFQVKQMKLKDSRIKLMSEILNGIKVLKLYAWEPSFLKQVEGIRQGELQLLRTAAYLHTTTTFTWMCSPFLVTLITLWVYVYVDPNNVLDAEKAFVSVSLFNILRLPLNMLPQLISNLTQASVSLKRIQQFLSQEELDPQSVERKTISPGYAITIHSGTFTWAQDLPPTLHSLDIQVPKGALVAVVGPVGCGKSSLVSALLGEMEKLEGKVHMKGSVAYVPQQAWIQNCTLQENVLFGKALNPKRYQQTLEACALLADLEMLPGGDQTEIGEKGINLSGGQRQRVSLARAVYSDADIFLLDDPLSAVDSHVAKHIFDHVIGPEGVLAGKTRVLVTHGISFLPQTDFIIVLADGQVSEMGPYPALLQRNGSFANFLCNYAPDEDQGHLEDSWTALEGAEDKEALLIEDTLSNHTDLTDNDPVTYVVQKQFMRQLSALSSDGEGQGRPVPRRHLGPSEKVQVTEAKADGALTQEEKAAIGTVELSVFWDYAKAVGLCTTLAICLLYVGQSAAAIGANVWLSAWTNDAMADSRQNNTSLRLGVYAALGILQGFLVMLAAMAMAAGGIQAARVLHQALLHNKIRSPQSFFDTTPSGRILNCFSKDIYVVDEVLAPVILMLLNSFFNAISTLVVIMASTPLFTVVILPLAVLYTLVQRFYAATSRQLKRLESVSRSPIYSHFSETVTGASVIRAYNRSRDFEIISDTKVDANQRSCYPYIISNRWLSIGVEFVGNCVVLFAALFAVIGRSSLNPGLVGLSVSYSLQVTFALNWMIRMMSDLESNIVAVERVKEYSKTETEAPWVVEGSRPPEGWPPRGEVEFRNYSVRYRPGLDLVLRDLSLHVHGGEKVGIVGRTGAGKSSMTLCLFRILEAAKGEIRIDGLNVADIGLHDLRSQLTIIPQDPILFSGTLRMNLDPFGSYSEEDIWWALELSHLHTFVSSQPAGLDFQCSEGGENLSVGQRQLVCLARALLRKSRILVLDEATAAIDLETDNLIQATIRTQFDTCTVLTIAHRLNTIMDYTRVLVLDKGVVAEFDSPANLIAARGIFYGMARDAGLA
Sequence of ATP-binding cassette sub-family C member 2 (Q92887 whole entry): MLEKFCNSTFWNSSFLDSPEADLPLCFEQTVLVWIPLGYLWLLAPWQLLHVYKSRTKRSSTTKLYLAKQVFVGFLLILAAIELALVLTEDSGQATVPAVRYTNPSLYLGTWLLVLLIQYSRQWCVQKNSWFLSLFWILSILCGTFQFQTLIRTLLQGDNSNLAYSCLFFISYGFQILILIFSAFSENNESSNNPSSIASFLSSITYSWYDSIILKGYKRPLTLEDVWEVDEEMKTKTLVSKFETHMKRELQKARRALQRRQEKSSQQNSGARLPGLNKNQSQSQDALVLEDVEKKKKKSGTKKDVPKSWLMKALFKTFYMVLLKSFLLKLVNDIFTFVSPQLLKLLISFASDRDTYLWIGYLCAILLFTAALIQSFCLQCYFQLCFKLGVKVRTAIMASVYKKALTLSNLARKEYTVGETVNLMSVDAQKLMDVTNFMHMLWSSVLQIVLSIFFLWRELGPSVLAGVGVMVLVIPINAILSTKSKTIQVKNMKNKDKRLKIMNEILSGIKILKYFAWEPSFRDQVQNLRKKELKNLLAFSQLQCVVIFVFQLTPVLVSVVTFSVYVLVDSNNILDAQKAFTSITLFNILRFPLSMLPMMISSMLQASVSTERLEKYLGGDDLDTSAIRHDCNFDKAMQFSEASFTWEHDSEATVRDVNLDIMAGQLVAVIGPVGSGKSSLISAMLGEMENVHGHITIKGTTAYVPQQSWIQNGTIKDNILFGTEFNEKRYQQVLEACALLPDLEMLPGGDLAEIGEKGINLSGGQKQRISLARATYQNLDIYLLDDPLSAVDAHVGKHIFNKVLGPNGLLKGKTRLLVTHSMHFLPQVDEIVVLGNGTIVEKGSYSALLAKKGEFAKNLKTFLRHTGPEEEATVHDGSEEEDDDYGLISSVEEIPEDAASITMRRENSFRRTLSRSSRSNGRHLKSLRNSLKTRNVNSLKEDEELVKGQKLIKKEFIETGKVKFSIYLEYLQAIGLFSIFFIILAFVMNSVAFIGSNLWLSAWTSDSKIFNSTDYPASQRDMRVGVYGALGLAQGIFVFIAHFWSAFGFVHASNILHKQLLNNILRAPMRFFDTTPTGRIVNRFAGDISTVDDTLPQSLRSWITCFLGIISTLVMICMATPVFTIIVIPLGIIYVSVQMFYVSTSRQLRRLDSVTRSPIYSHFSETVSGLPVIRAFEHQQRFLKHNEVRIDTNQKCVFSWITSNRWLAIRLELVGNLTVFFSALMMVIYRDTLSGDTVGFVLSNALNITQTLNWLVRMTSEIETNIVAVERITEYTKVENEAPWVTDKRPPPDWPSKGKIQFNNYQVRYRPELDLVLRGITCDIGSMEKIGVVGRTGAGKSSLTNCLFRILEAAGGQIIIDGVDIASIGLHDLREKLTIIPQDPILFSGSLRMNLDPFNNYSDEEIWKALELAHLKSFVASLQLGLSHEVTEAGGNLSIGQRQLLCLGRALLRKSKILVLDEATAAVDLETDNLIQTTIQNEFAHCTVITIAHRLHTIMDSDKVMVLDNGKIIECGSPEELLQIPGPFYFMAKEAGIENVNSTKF

## CC(C)(C)C(=O)OCOP(=O)(COCCn1cnc2c(N)ncnc21)OCOC(=O)C(C)(C)C [ADEFOVIR DIPIVOXIL]
[1]
  Ratio: 0.00069
[2]
  AUC at 24 h: 765 nM·h
[3]
  concentration at 24 h: 0.032 µM
[4]
  IC50: 46 µM
[5]
  IC50: > 133 µM
[6]
  IC50: > 133 µM
[7]
  IC50: > 133 µM

## CCNC(=O)CCC/C=C\C[C@@H]1[C@@H](/C=C/[C@@H](O)CCc2ccccc2)[C@H](O)C[C@@H]1O [BIMATOPROST]
[4]
  IC50: 40.4 µM
[8]
  Ratio: 2e-7
[5]
  IC50: > 133 µM
[6]
  IC50: > 133 µM
[7]
  IC50: > 133 µM

## Cl.OCCN1CCN(CCCN2c3ccccc3Sc3ccc(C(F)(F)F)cc32)CC1
[9]
  AUC at 24 h: 30 nM·h
[10]
  concentration at 24 h: 0.001 µM
[4]
  IC50: 87.3 µM
[5]
  IC50: > 133 µM
[6]
  IC50: > 133 µM
[7]
  IC50: > 133 µM

## CC(C)n1c(/C=C/C(O)CC(O)CC(=O)O)c(-c2ccc(F)cc2)c2ccccc21 (stereo not given) [FLUVASTATIN]
[11]
  AUC at 24 h: 1490 nM·h
[12]
  concentration at 24 h: 0.062 µM
[13]
  Ratio: 0.002
[14]
  Ratio: 0.001
[6]
  IC50: 57 µM
[7]
  IC50: > 133 µM

## Cc1ccccc1C(=O)Nc1ccc(C(=O)N2CCCC(O)c3cc(Cl)ccc32)c(C)c1 (stereo not given) [TOLVAPTAN]
[4]
  IC50: 9.99 µM
[15]
  AUC at 24 h: 9490 nM·h
[16]
  concentration at 24 h: 0.396 µM
[5]
  IC50: > 133 µM
[17]
  Ratio: 0.04
[6]
  IC50: > 133 µM
[7]
  IC50: > 133 µM

## CC(O)(CS(=O)(=O)c1ccc(F)cc1)C(=O)Nc1ccc(C#N)c(C(F)(F)F)c1 (stereo not given) [BICALUTAMIDE]
[18]
  concentration at 24 h: 20.9 µM
[4]
  IC50: 79.6 µM
[19]
  AUC at 24 h: 502000 nM·h
[20]
  Ratio: 0.263
[5]
  IC50: > 133 µM
[6]
  IC50: > 133 µM
[7]
  IC50: > 133 µM

## CCCC[C@](C)(O)C/C=C/[C@H]1[C@H](O)CC(=O)[C@@H]1CCCCCCC(=O)OC
[4]
  IC50: 27.7 µM
[21]
  AUC at 6 h: 1 nM·h
[22]
  Ratio: 0.00001
[5]
  IC50: > 133 µM
[23]
  Ratio: 0
[6]
  IC50: > 133 µM
[7]
  IC50: 46 µM

## COc1ccc(CCN2CCC(Nc3nc4ccccc4n3Cc3ccc(F)cc3)CC2)cc1 [ASTEMIZOLE]
[24]
  AUC at 24 h: 24 nM·h
[5]
  IC50: > 133 µM
[6]
  IC50: > 133 µM
[7]
  IC50: > 133 µM
[25]
  Activity: Toxic

## CCCC1O[C@@H]2C[C@H]3[C@@H]4CCC5=CC(=O)C=C[C@]5(C)[C@H]4[C@@H](O)C[C@]3(C)[C@]2(C(=O)CO)O1 (stereo not given in full) [BUDESONIDE]
[26]
  concentration at 24 h: 0.000629 µM
[27]
  Ratio: 0
[28]
  Ratio: 0
[29]
  AUC at 24 h: 15.1 nM·h
[4]
  IC50: 46 µM
[5]
  IC50: > 133 µM
[30]
  Ratio: 0.00001
[6]
  IC50: 54.5 µM
[7]
  IC50: 37 µM

## C=C1/C(=C\C=C2/CCC[C@]3(C)[C@@H]([C@H](C)CCCC(C)(C)O)CC[C@@H]23)C[C@@H](O)C[C@@H]1O [CALCITRIOL]
[4]
  IC50: 39.7 µM
[31]
  AUC at 24 h: 2 nM·h
[32]
  Ratio: 1.6e-6
[5]
  IC50: > 133 µM
[6]
  IC50: > 133 µM
[33]
  Css: 0 µM
[7]
  IC50: > 133 µM

## CCOC(=O)[N-]c1cn(N2CCOCC2)n[o+]1 [MOLSIDOMINE]
[4]
  IC50: > 133 µM
[5]
  IC50: > 133 µM
[6]
  IC50: > 133 µM
[7]
  IC50: > 133 µM
